Laboratory results: ChEMBL document CHEMBL1134976, “SB-656104-A: a novel 5-HT(7) receptor antagonist with improved in vivo properties” (Bioorg Med Chem Lett, 2002)

What was measured:
[1] = biological target: T1, 5-hydroxytryptamine receptor 7 (Homo sapiens, UniProt P34969); experiment: Binding affinity for human cloned 5-hydroxytryptamine 7 receptor in HEK 293 using [3H]5-CT as a radioligand; format: cell-based, HEK293
[2] = biological target: T2, Alpha-1B adrenergic receptor (Homo sapiens, UniProt P35368); experiment: Binding affinity towards Alpha-1B adrenergic receptor
T2 sequence (P35368 whole entry): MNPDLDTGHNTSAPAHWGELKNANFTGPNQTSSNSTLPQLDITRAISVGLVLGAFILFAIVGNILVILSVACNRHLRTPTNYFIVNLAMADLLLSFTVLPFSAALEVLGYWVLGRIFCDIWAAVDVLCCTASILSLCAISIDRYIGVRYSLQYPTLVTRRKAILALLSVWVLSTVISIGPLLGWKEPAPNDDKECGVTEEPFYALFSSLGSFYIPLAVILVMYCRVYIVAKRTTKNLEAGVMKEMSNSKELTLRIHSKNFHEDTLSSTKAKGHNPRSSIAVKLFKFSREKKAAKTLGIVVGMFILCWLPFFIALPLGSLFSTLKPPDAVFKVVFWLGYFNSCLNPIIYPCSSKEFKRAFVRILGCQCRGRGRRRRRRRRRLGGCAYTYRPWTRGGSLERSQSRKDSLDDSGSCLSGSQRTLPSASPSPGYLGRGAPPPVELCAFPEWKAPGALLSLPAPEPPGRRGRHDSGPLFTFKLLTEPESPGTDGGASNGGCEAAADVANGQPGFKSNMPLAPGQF

[3] = tested on: Cavia porcellus; experiment: Effective dose to antagonise 5-CT induced hypothermia in guinea pig at 1 hour after intraperitoneal administration; details: ip
[4] = Steady state brain :blood ratio was determined; format: ADME, organism-based; details: rat, brain and blood
[5] = Half life was determined; format: ADME, organism-based; details: rat, in vivo
[6] = Compound was tested for the lower blood clearance in rat; format: ADME, organism-based; details: read-out: CLb
[7] = biological target: 5-hydroxytryptamine receptor 2A (Homo sapiens, UniProt P28223); experiment: Compound was tested for its binding affinity for human cloned 5-hydroxytryptamine 2A receptor in HEK 293 using [3H]ketanserin as a radioligand; format: cell-based, HEK293
5-hydroxytryptamine receptor 2A, sequence (P28223 whole entry): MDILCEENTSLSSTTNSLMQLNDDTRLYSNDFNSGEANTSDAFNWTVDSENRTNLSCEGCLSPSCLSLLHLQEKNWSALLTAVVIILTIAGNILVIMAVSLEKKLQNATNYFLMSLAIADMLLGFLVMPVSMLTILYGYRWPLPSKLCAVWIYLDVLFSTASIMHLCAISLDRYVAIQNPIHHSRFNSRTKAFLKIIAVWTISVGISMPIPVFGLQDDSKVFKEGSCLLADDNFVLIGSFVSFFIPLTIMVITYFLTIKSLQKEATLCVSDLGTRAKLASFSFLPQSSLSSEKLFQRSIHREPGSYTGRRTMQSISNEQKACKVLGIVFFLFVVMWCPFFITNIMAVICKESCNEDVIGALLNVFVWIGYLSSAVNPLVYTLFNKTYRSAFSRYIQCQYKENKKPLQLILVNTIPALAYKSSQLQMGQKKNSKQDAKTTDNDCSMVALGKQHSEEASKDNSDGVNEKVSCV

[8] = biological target: 5-hydroxytryptamine receptor 5A (Homo sapiens, UniProt P47898); experiment: Compound was tested for its binding affinity in 5-hydroxytryptamine 5A receptor (using human cloned receptors in HEK 293 and [3H]5-CTas a radioligand ); format: cell-based, HEK293
5-hydroxytryptamine receptor 5A, sequence (P47898 whole entry): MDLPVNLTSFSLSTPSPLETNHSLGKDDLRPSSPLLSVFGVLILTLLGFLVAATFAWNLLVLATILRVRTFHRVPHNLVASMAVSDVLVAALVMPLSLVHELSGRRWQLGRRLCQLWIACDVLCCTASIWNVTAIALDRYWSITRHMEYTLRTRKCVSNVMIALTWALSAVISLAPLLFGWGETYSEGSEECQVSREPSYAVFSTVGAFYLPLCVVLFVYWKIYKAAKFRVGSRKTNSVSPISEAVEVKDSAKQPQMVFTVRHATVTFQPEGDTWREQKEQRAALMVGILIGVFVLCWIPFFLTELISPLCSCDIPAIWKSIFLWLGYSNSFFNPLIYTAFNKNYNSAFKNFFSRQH

[9] = biological target: 5-hydroxytryptamine receptor 1E (Homo sapiens, UniProt P28566); experiment: Compound was tested for its binding affinity for human cloned 5-hydroxytryptamine 1E receptor in CHO using [3H]5-HT as a radioligand
5-hydroxytryptamine receptor 1E, sequence (P28566 whole entry): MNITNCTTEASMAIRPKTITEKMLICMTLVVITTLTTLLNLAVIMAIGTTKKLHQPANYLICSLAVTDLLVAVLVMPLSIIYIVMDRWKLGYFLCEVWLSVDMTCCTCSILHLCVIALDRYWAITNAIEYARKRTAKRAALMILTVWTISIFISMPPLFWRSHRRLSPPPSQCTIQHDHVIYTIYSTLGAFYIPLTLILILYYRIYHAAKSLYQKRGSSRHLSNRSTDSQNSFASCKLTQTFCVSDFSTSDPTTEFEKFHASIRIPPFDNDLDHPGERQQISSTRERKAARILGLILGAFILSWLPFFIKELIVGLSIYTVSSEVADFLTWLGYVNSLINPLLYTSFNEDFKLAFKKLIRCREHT

[10] = biological target: 5-hydroxytryptamine receptor 1B (Homo sapiens, UniProt P28222); experiment: Compound was tested for its binding affinity for human cloned 5-hydroxytryptamine 1B receptor in CHO using [3H]5-HT as a radioligand
5-hydroxytryptamine receptor 1B, sequence (P28222 whole entry): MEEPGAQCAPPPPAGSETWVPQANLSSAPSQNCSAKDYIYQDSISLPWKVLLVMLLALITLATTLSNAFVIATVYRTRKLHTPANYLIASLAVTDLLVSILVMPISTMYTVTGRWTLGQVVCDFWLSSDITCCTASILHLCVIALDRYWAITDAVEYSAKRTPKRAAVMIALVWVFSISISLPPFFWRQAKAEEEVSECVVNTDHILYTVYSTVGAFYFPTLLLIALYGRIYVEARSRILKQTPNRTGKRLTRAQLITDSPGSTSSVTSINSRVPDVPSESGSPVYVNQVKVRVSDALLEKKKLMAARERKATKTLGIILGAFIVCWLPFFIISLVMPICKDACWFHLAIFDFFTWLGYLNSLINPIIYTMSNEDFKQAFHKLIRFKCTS

[11] = species on record: Cavia porcellus; experiment: Effective dose to antagonise 5-CT induced hypothermia in guinea pig at 2 hours; format: functional
[12] = biological target: T1, 5-hydroxytryptamine receptor 7; experiment: Compound was tested for its binding affinity in 5-hydroxytryptamine 7 receptor (using human cloned receptors in HEK 293 and [3H]5-CT as a radioligand ); format: cell-based, HEK293
[13] = biological target: T3, 5-hydroxytryptamine receptor 1F (Homo sapiens, UniProt P30939); experiment: Compound was tested for its binding affinity for human cloned 5-hydroxytryptamine 1F receptor in CHO using [3H]5-HT as a radioligand
T3 sequence (P30939 whole entry): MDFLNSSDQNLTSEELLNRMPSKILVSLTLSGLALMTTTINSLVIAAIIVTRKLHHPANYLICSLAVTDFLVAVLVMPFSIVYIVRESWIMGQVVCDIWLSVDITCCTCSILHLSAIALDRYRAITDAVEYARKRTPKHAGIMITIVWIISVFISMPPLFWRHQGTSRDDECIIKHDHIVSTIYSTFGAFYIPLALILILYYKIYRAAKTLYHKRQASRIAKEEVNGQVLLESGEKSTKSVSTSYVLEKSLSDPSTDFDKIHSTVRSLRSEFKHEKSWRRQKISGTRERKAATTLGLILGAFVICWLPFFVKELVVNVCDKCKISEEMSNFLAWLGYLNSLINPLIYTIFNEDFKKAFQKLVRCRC

[14] = biological target: 5-hydroxytryptamine receptor 6 (Homo sapiens, UniProt P50406); experiment: Compound was tested for its binding affinity in 5-hydroxytryptamine 6 receptor (using human cloned receptors in HeLa and [3H]LSD as a radioligand )
5-hydroxytryptamine receptor 6, sequence (P50406 whole entry): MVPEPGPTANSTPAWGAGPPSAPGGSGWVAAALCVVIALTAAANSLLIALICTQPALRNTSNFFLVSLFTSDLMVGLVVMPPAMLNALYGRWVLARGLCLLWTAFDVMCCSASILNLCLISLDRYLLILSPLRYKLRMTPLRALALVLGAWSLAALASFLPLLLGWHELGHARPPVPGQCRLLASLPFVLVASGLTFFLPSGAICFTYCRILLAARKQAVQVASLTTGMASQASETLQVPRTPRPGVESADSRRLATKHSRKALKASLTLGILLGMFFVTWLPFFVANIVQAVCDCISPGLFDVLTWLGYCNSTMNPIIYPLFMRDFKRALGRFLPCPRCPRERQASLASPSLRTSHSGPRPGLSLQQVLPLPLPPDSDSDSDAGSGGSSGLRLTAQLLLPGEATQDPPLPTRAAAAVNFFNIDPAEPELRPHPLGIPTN

[15] = biological target: 5-hydroxytryptamine receptor 2B (Homo sapiens, UniProt P41595); experiment: Compound was tested for its binding affinity for human cloned 5-hydroxytryptamine 2B receptor in HEK 293 using [3H]ketanserin as a radioligand; format: cell-based, HEK293
5-hydroxytryptamine receptor 2B, sequence (P41595 whole entry): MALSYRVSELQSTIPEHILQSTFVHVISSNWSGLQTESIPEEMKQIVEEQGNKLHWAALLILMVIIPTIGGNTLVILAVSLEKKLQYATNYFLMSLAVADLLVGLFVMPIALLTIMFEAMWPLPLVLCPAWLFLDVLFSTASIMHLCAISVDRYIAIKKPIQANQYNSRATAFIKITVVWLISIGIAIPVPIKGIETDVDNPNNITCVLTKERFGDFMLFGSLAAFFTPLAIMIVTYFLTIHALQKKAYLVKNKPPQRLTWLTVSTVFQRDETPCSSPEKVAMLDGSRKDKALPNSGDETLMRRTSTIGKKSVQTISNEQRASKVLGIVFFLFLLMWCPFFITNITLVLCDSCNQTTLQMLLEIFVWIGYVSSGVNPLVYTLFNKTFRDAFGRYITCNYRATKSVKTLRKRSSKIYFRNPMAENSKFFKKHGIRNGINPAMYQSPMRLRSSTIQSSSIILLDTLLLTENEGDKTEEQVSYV

[16] = biological target: 5-hydroxytryptamine receptor 1D (Homo sapiens, UniProt P28221); experiment: Compound was tested for its binding affinity for human cloned 5-hydroxytryptamine 1D receptor in CHO using [3H]5-HT as a radioligand
5-hydroxytryptamine receptor 1D, sequence (P28221 whole entry): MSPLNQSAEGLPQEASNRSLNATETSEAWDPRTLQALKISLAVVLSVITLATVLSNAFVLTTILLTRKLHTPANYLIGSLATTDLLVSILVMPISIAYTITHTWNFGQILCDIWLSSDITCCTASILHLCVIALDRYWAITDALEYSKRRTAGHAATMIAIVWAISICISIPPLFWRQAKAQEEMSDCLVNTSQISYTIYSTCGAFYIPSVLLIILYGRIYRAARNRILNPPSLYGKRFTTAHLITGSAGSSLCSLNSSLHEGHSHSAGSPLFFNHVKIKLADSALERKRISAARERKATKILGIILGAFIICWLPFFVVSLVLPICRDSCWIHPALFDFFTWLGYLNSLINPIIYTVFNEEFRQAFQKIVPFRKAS

[17] = Oral bioavailability in rat; format: ADME, organism-based; details: in vivo
[18] = biological target: T4, 5-hydroxytryptamine receptor 1A (Homo sapiens, UniProt P08908); experiment: Compound was tested for its binding affinity for human cloned 5-hydroxytryptamine 1A receptor in HEK 293 using [3H]5-CT as a radioligand; format: cell-based, HEK293
T4 sequence (P08908 whole entry): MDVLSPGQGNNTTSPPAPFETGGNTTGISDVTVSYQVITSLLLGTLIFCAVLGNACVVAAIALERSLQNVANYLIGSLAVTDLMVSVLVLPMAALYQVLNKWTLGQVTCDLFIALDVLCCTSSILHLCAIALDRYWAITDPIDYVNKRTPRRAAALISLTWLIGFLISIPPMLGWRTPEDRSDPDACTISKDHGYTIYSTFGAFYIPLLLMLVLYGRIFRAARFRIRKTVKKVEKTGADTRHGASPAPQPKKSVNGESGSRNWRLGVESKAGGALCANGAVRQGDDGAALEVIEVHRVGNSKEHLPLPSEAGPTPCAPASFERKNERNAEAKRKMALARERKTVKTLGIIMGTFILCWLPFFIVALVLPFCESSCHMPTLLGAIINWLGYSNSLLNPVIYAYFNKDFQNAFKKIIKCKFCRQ

[19] = biological target: 5-hydroxytryptamine receptor 4 (Homo sapiens, UniProt Q13639); experiment: Compound was tested for its binding affinity for 5-hydroxytryptamine 4 receptor
5-hydroxytryptamine receptor 4, sequence (Q13639 whole entry): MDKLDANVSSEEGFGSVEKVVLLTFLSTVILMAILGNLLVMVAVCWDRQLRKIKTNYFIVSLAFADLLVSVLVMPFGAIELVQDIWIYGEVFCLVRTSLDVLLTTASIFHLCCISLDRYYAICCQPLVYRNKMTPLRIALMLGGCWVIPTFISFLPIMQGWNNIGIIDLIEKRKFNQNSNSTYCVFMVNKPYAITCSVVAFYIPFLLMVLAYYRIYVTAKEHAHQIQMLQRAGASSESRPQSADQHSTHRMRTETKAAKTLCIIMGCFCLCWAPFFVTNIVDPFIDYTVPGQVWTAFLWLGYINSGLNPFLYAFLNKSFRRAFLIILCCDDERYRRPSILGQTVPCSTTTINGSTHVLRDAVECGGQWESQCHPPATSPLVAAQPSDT

[20] = biological target: T5, 5-hydroxytryptamine receptor 2C (Homo sapiens, UniProt P28335); experiment: Compound was tested for its binding affinity for human cloned 5-hydroxytryptamine 2C receptor in HEK 293 using [3H]mesulergine as a radioligand; format: cell-based, HEK293
T5 sequence (P28335 whole entry): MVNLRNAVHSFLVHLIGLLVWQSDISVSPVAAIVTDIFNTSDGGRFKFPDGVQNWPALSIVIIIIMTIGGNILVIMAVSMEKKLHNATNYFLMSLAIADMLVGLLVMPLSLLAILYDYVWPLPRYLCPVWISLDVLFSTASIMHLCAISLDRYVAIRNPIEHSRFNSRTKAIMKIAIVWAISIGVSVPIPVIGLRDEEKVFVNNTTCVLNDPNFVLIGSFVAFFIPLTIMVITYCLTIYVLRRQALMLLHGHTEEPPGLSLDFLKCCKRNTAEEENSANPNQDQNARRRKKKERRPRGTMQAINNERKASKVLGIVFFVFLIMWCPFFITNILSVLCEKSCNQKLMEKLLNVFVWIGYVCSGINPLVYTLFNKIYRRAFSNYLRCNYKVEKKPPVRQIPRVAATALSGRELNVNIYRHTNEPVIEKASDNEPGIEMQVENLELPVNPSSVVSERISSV

T1 sequence (P34969 whole entry): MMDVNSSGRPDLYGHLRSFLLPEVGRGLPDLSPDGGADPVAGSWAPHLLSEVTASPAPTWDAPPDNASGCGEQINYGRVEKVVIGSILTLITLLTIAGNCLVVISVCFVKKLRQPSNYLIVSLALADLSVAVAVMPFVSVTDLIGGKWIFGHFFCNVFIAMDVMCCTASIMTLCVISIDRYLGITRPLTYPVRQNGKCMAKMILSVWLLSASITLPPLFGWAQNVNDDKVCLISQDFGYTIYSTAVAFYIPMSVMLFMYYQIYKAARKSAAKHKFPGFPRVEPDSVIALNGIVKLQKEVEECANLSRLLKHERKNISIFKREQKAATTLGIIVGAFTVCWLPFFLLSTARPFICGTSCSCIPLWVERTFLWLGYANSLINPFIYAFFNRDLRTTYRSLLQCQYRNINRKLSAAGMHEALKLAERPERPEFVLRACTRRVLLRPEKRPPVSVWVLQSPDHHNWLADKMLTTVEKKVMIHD

SMILES: CC1CCN(CC[C@H]2CCCN2S(=O)(=O)c2ccc3c[nH]nc3c2)CC1
- Ki [1]: 6.46 nM

SMILES: CC1CCN(CC[C@H]2CCCN2S(=O)(=O)c2ccc3oc(O)nc3c2)CC1
- Ki [1]: 166 nM

SMILES: CC1CCN(CC[C@H]2CCCN2S(=O)(=O)c2ccc3[nH]c(O)nc3c2)CC1
- Ki [1]: 57.5 nM

SMILES: CC1CCN(CC[C@H]2CCCN2S(=O)(=O)c2ccc3[nH]nnc3c2)CC1
- Ki [1]: 25.7 nM

SMILES: CC1CCN(CC[C@H]2CCCN2S(=O)(=O)c2ccc3[nH]cnc3c2)CC1
- Ki [1]: 6.46 nM

SMILES: CC1CCN(CC[C@H]2CCCN2S(=O)(=O)c2ccc3c(c2)NCC3)CC1
- Ki [1]: 22.9 nM

SMILES: O=C(c1ccc(F)cc1)C1CCN(CC[C@H]2CCCN2S(=O)(=O)c2ccc3cc[nH]c3c2)CC1
- Ki [1]: 0.832 nM
- Ki [2]: 19.1 nM

SMILES: O=S(=O)(c1ccc2cc[nH]c2c1)N1CCC[C@@H]1CCN1CCC(n2c(O)nc3ccccc32)CC1
- Ki [1]: 0.708 nM
- Ki [2]: 43.7 nM

SMILES: O=C(c1ccc(Cl)cc1)C1CCN(CC[C@H]2CCCN2S(=O)(=O)c2ccc3cc[nH]c3c2)CC1
- Ki [1]: 0.794 nM
- Ki [2]: 93.3 nM

SMILES: CC1CCN(CC[C@H]2CCCN2S(=O)(=O)c2cccc(O)c2)CC1.Cl
- ED50 [3]: 3 mg/kg
- Kp [4]: 0.8
- half-life [5]: < 0.5 h
- clearance [6]: 140 mL/min/kg

SMILES: O=c1oc2ccccc2n1C1CCN(CC[C@H]2CCCN2S(=O)(=O)c2ccc3cc[nH]c3c2)CC1
- Ki [1]: 1.82 nM
- Ki [2]: 309 nM

SMILES: CC1CCN(CC[C@H]2CCCN2S(=O)(=O)c2ccc3cc[nH]c3c2)CC1
- Ki [1]: 2.4 nM
- Ki [2]: > 10000 nM

SMILES: O=S(=O)(c1ccc2cc[nH]c2c1)N1CCC[C@@H]1CCN1CCC(c2cc3ccccc3[nH]2)CC1
- Ki [1]: 6.31 nM
- Ki [2]: 89.1 nM

SMILES: O=S(=O)(c1ccc2cc[nH]c2c1)N1CCC[C@@H]1CCN1CCC(Oc2ccc(F)cc2)CC1
- Ki [1]: 0.501 nM
- Ki [2]: 30.2 nM

SMILES: O=S(=O)(c1ccc2cc[nH]c2c1)N1CCC[C@@H]1CCN1CCC(c2c[nH]c3ccccc23)CC1
- Ki [1]: 0.676 nM
- Ki [2]: 1.29 nM

SMILES: O=S(=O)(c1ccc2cc[nH]c2c1)N1CCC[C@@H]1CCN1CCC(Oc2ccc(Cl)cc2)CC1
- Ki [7]: 63.1 nM
- Ki [8]: 182 nM
- Ki [9]: > 5010 nM
- Ki [10]: 631 nM
- ED50 [11]: 2 mg/kg
- Kp [4]: 0.9
- Ki [12]: 2 nM
- Ki [13]: > 2000 nM
- Ki [14]: 851 nM
- Ki [15]: 91.2 nM
- Ki [16]: 25.1 nM
- half-life [5]: 2 h
- bioavailability [17]: 16%
- clearance [6]: 57 mL/min/kg
- Ki [18]: 562 nM
- Ki [19]: 1910 nM
- Ki [20]: 269 nM
